{"source": "patent US12552824B2", "about": "“C-mannoside compounds useful for the treatment of urinary tract infections” (GLAXOSMITHKLINE INTELLECTUAL PROPERTY DEVELOPMENT LIMITED, priority 2018, dated 2026);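 for HAI titer EC > 90: concentration in nM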", "key": {"[1]": {"target": "T1, FimH (Escherichia coli, UniProt Q1R2J4)", "T1 construct": "endogenous in cells; host or cells: E. coli UTI89 whole bacteria, agglutinating guinea pig red blood cells", "type": "cell-based", "conditions": "concentration reducing bacterial agglutination of guinea pig red blood cells by greater than 90%; UTI89 bacteria", "method": "Hemagglutination Inhibition Assay (HAI)\nThe hemagglutination inhibition (HAI) assay was performed with UTI89 bacteria and guinea pig red blood cells, as previously described (S. J. Hultgren, W. R. Schwan, A. J. Schaeffer, J. L. Duncan Infect. Immun. 1986, 54, 613-620 and Jarvis, C.; Han, Z.; Kalas, V.; Klein, R.; Pinkner, J. S.; Ford, B.; Binkley, J.; Cusumano, C. K.; Cusumano, Z.; Mydock-McGrane, L.; Hultgren, S. J.; Janetka, J. W., ChemMedChem 2016, 11, 367-373)."}, "[2]": {"test": "Rat pharmacokinetics: IV infusion 1 mg/kg, then PO 5 mg/kg; blood and urine by LC-MS/MS", "type": "in vivo, Male Wistar Han rats", "conditions": "for % F / bioavailability: oral bioavailability, ratio of dose-normalised AUC PO (5 mg/kg) and IV infusion (1 mg/kg); for Ue % po: percentage of oral dose (5 mg/kg) eliminated unchanged in urine; for bioavailability: male, Wistar Han; for bioavailability / AUC: whole blood; for AUC: area under blood concentration-time profile, PO 5 mg/kg, male Wistar Han rats, n = 3", "from_the_text": "General Assays for Obtaining AUC Oral h*μm, % F, and Ue % PO Values\nMale Wistar Han rats were purchased from Vital River Laboratory Animal Technology Co. Ltd (Beijing, China). The animals were approx. 6-8 weeks old with body weights of 200-300 g on the dosing date. The animals were housed in a 12-hour light/12-hour dark cycle environment and had free access to food and water. All animals were fed prior to dosing. Studies were approved by the Pharmaron Institutional Animal Care and Use Committee (IACUC).\nTest article was administered as an intravenous infusion for 1 hour (1 mg/kg) at 5 mL/kg/h. After 48 h, animals received a single oral dose (5 mg/kg, free form) at a dose volume of 10 mL/kg, respectively. Blood samples were collected at various time points after IV infusion and PO administrations. Urine samples were collected at various time points after IV infusion and PO administrations.\nTest article was dissolved in DMSO with vortexing and sonification to obtain a stock solution. An aliquot of the stock solution was mixed with 10% HP-β-CD in saline with vortexing to obtain a solution with concentration at 0.2 mg/mL of test article.\nTest article was added into 1% Methyl Cellulose with vortexing and sonication to obtain a homogeneous suspension with concentration at 0.5 mg/mL of test article.\nFor IV infusion (1 mg/kg) administration, blood samples were collected from each animal at 0, 0.25, 0.5, 0.75, 1, 1.08, 1.25, 1.5, 1.75, 2, 3, 5, 8, 12, 24 hour post-dose.\nFor PO (5 mg/kg) administration, blood samples were collected from each animal at 0, 0.25, 0.5, 1, 1.5, 2, 3, 4, 6, 8, 12, 24 hour post-dose.\nBlood samples (50 μL) were collected from each animal via jugular vein. These blood samples were placed into tubes containing K2EDTA. Whole blood was mixed with same volume of water and inverted several times. The blood samples were stored at −75±15° C. until analysis.\nFor IV infusion (1 mg/kg) administration, urine samples were collected from each animal at 0-4, 4-8, 8-12, 12-24 hour post-dose.\nFor PO (5 mg/kg) administration, urine samples were collected from each animal at 0-4, 4-8, 8-12, 12-24 hour post-dose.\nUrine samples were collected continuously into containers maintained over dry ice at the intervals outlined below and stored at −80° C. prior to analysis.\n55 μL of standards, 55 μL of QC samples or 55 μL of unknown samples (50 μL of blood or urine with 5 μL 50% acetonitrile) were mixed to 200 μL of acetonitrile containing IS (dexamethasone) to precipitate proteins. Then the samples were vortexed for 30 sec. After centrifugation at 4° C., 4700 rpm for 30 min, and 5 μL of the supernatant was injected into the LC-MS/MS system for quantitative analysis.\nTest article blood and urine concentrations for each animal following IV infusion at 1 mg/kg and PO at 5 mg/kg were used to calculate pharmacokinetic parameters by employing a non-compartmental analysis (Phoenix™ WinNonlin® 7.0). The linear trapezoidal algorithm was used for AUC calculation."}}, "data": [{"smiles": "Cc1cc(-c2cc(F)c(OC(C)C)c(F)c2)ccc1[C@@H](O)[C@H]1O[C@H](CO)[C@@H](O)[C@H](O)[C@@H]1O", "note": "[Example 93]", "values": [{"measurement": "HAI titer EC > 90", "setting": "[1]", "result": "“++++” (<50 “++++”)"}, {"measurement": "% F", "setting": "[2]", "result": "“++” (10 <= x <= 30%)"}, {"measurement": "Ue % po", "setting": "[2]", "result": "“+” (<0.5%)"}]}, {"smiles": "Cc1cc(-c2cc(Cl)cc(Cl)c2)ccc1[C@@H](O)[C@H]1O[C@H](CO)[C@@H](O)[C@H](O)[C@@H]1O", "note": "[Example 16]", "values": [{"measurement": "HAI titer EC > 90", "setting": "[1]", "result": "“++++” (<50 “++++”)"}, {"measurement": "% F", "setting": "[2]", "result": "“++” (10 <= x <= 30%)"}, {"measurement": "Ue % po", "setting": "[2]", "result": "“++” (0.5 <= x <= 5%)"}]}, {"smiles": "Cc1cc(-c2cc(F)c(Cl)c(F)c2)ccc1[C@@H](O)[C@H]1O[C@H](CO)[C@@H](O)[C@H](O)[C@@H]1O", "note": "[Example 2, (2R,3S,4S,5S,6R)-2-((R)-(4′-Chloro-3′,5′-difluoro-3-methyl-[1,1′-biphenyl]-4-yl)(hydroxy)methyl)-6-(hydroxymethyl)tetrahydro-2H-pyran-3,4,5-triol]", "values": [{"measurement": "HAI titer EC > 90", "setting": "[1]", "result": "“++++” (<50 “++++”)"}, {"measurement": "bioavailability", "setting": "[2]", "result": "10 to 30", "unit": "%"}, {"measurement": "Ue % po", "setting": "[2]", "result": "“++” (0.5 <= x <= 5%)"}, {"measurement": "AUC", "setting": "[2]", "result": "> 1", "unit": "µM·h"}]}, {"smiles": "Cc1cc(F)c(-c2ccc([C@@H](O)[C@H]3O[C@H](CO)[C@@H](O)[C@H](O)[C@@H]3O)c(C)c2)cc1Cl", "note": "[Example 11]", "values": [{"measurement": "HAI titer EC > 90", "setting": "[1]", "result": "“+++” (50-200 “+++”)"}, {"measurement": "% F", "setting": "[2]", "result": "“+++” (>30%)"}, {"measurement": "Ue % po", "setting": "[2]", "result": "“++” (0.5 <= x <= 5%)"}]}, {"smiles": "Cc1cc(-c2cc(F)c(OC(F)(F)F)c(F)c2)ccc1[C@@H](O)[C@H]1O[C@H](CO)[C@@H](O)[C@H](O)[C@@H]1O", "note": "[Example 101]", "values": [{"measurement": "HAI titer EC > 90", "setting": "[1]", "result": "“++++” (<50 “++++”)"}, {"measurement": "% F", "setting": "[2]", "result": "“++” (10 <= x <= 30%)"}, {"measurement": "Ue % po", "setting": "[2]", "result": "“+” (<0.5%)"}]}, {"smiles": "CCc1c(F)cc(-c2ccc([C@@H](O)[C@H]3O[C@H](CO)[C@@H](O)[C@H](O)[C@@H]3O)c(C)c2)cc1F", "note": "[Example 94]", "values": [{"measurement": "HAI titer EC > 90", "setting": "[1]", "result": "“++++” (<50 “++++”)"}, {"measurement": "% F", "setting": "[2]", "result": "“++” (10 <= x <= 30%)"}, {"measurement": "Ue % po", "setting": "[2]", "result": "“+” (<0.5%)"}]}, {"smiles": "C=Cc1c(F)cc(-c2ccc([C@@H](O)[C@H]3O[C@H](CO)[C@@H](O)[C@H](O)[C@@H]3O)c(C)c2)cc1F", "note": "[Example 4, (2R,3S,4S,5S,6R)-2-((R)-(3′,5′-Difluoro-3-methyl-4′-vinyl-[1,1′-biphenyl]-4-yl)(hydroxy)methyl)-6-(hydroxymethyl)tetrahydro-2H-pyran-3,4,5-triol]", "values": [{"measurement": "HAI titer EC > 90", "setting": "[1]", "result": "“++++” (<50 “++++”)"}, {"measurement": "bioavailability", "setting": "[2]", "result": "10 to 30", "unit": "%"}, {"measurement": "Ue % po", "setting": "[2]", "result": "“++” (0.5 <= x <= 5%)"}, {"measurement": "AUC", "setting": "[2]", "result": "< 0.5", "unit": "µM·h"}]}, {"smiles": "Cc1cc(-c2ccc(Cl)c(Cl)c2)ccc1[C@@H](O)[C@H]1O[C@H](CO)[C@@H](O)[C@H](O)[C@@H]1O", "note": "[Example 15]", "values": [{"measurement": "HAI titer EC > 90", "setting": "[1]", "result": "“++++” (<50 “++++”)"}, {"measurement": "% F", "setting": "[2]", "result": "“++” (10 <= x <= 30%)"}, {"measurement": "Ue % po", "setting": "[2]", "result": "“++” (0.5 <= x <= 5%)"}]}, {"smiles": "OC[C@H]1O[C@H]([C@H](O)c2ccc(-c3cc(F)cc(F)c3)cc2C(F)(F)F)[C@@H](O)[C@@H](O)[C@@H]1O", "note": "[Example 8, (2R,3S,4S,5S,6R)-2-((R)-(3′,5′-Difluoro-3-(trifluoromethyl)-[1,1′-biphenyl]-4-yl)(hydroxy)methyl)-6-(hydroxymethyl)tetrahydro-2H-pyran-3,4,5-triol]", "values": [{"measurement": "HAI titer EC > 90", "setting": "[1]", "result": "“++++” (<50 “++++”)"}, {"measurement": "bioavailability", "setting": "[2]", "result": "> 30", "unit": "%"}, {"measurement": "Ue % po", "setting": "[2]", "result": "“++” (0.5 <= x <= 5%)"}, {"measurement": "AUC", "setting": "[2]", "result": "< 0.5", "unit": "µM·h"}]}, {"smiles": "Cc1cc(-c2cc(F)c(Br)c(F)c2)ccc1[C@@H](O)[C@H]1O[C@H](CO)[C@@H](O)[C@H](O)[C@@H]1O", "note": "[Example 3, (2R,3S,4S,5S,6R)-2-((R)-(4′-Bromo-3′,5′-difluoro-3-methyl-[1,1′-biphenyl]-4-yl)(hydroxy)methyl)-6-(hydroxymethyl)tetrahydro-2H-pyran-3,4,5-triol]", "values": [{"measurement": "HAI titer EC > 90", "setting": "[1]", "result": "“++++” (<50 “++++”)"}, {"measurement": "bioavailability", "setting": "[2]", "result": "10 to 30", "unit": "%"}, {"measurement": "Ue % po", "setting": "[2]", "result": "“++” (0.5 <= x <= 5%)"}, {"measurement": "AUC", "setting": "[2]", "result": "> 1", "unit": "µM·h"}]}, {"smiles": "COc1cc(F)cc(-c2ccc([C@@H](O)[C@H]3O[C@H](CO)[C@@H](O)[C@H](O)[C@@H]3O)c(C)c2)c1", "note": "[Example 24]", "values": [{"measurement": "HAI titer EC > 90", "setting": "[1]", "result": "“++++” (<50 “++++”)"}, {"measurement": "% F", "setting": "[2]", "result": "“++” (10 <= x <= 30%)"}, {"measurement": "Ue % po", "setting": "[2]", "result": "“++” (0.5 <= x <= 5%)"}]}]}
